Laboratory results as given in ChEMBL document CHEMBL4261573, “Synthesis and growth-inhibitory activities of imidazo[5,1-d]-1,2,3,5-tetrazine-8-carboxamides related to the anti-tumour drug temozolomide, with appended silicon, benzyl and heteromethyl groups at the 3-position” (Medchemcomm, 2018).

Key:
[1] = Drug level in deuterated phosphate buffer/D2O at pD 7 treated with 3-(2-Trimethylsilylethoxy)methylimidazotetrazine measured every 15 mins for 12 to 18 hrs by 1H NMR method
[2] = Drug level in deuterated phosphate buffer/D2O at pD 7 treated with 3-Trimethylsilylmethylimidazotetrazine measured every 15 mins for 12 to 18 hrs by 1H NMR method
SNB-19 [3] = assay: Growth inhibition of MGMT-transfected human SNB19 cells expressing MGMT after 7 days by MTT assay; format: functional; details: SNB-19, 168 h
U373 MG [4] = assay: Growth inhibition of vehicle-transfected human U373 cells after 7 days by MTT assay; format: functional, U-373MG ATCC; details: 168 h
U373 MG [5] = assay: Growth inhibition of MGMT-transfected human U373 cells expressing MGMT after 7 days by MTT assay; format: functional, U-373MG ATCC; details: 168 h
SNB-19 [6] = assay: Growth inhibition of vehicle-transfected human SNB19 cells after 7 days by MTT assay; format: functional; details: SNB-19, 168 h

Drug metabolism [1] | SMILES | Drug metabolism [2] | GI50 (SNB-19 [3]) | GI50 (U373 MG [4]) | GI50 (U373 MG [5]) | GI50 (SNB-19 [6])
Metabolite_Detected | NC(=O)c1[nH]cnc1N | Metabolite_Detected | – | – | – | –
Metabolite_Detected | C[Si](C)(C)CCO | – | – | – | – | –
– | C[C@H](c1ccccc1)n1nnc2c(C(N)=O)ncn2c1=O | – | 49.7 µM | > 50 µM | > 50 µM | 32.7 µM
– | COc1ccc(Cn2nnc3c(C(N)=O)ncn3c2=O)cc1OC | – | > 50 µM | > 50 µM | > 50 µM | > 50 µM
– | NC(=O)c1nc[nH]c1N/N=N/Cc1ccoc1 | – | > 50 µM | > 50 µM | > 50 µM | > 50 µM
– | NC(=O)c1ncn2c(=O)n(Cc3c[nH]nn3)nnc12 | – | > 50 µM | > 50 µM | > 50 µM | > 50 µM
– | NC(=O)c1ncn2c(=O)n(Cc3ccco3)nnc12 | – | > 50 µM | > 50 µM | > 50 µM | > 50 µM
– | NC(=O)c1nc[nH]c1N/N=N/Cc1ccco1 | – | > 50 µM | > 50 µM | > 50 µM | > 50 µM
– | NC(=O)c1ncn2c(=O)n(Cc3ccsc3)nnc12 | – | > 50 µM | > 50 µM | > 50 µM | > 50 µM
– | C[Si](C)(C)Cn1nnc2c(C(N)=O)ncn2c1=O | – | 302 µM | 45.6 µM | 250 µM | 28.4 µM
– | NC(=O)c1ncn2c(=O)n(Cc3ccccc3)nnc12 | – | > 50 µM | > 50 µM | > 50 µM | > 50 µM
– | NC(=O)c1nc[nH]c1N/N=N/Cc1ccccc1 | – | > 50 µM | > 50 µM | > 50 µM | > 50 µM
– | COc1ccc(Cn2nnc3c(C(N)=O)ncn3c2=O)c(OC)c1 | – | > 50 µM | > 50 µM | > 50 µM | > 50 µM
– | COc1ccc([C@@H](C)n2nnc3c(C(N)=O)ncn3c2=O)cc1 | – | > 50 µM | > 50 µM | > 50 µM | > 50 µM
– | COc1cc(Cn2nnc3c(C(N)=O)ncn3c2=O)cc(OC)c1OC | – | > 50 µM | > 50 µM | > 50 µM | > 50 µM
– | Cc1noc(Cn2nnc3c(C(N)=O)ncn3c2=O)n1 | – | > 50 µM | > 50 µM | > 50 µM | > 50 µM
– | NC(=O)c1nc[nH]c1N/N=N/CCc1ccccc1 | – | > 50 µM | > 50 µM | > 50 µM | > 50 µM

Drug metabolism [1] | SMILES | Drug metabolism [2] | GI50 (SNB-19 [3]) | GI50 (U373 MG [4]) | GI50 (U373 MG [5]) | GI50 (SNB-19 [6])
– | NC(=O)c1ncn2c(=O)n(C(c3ccccc3)c3ccccc3)nnc12 | – | > 50 µM | > 50 µM | > 50 µM | > 50 µM
– | Cc1cc(Cn2nnc3c(C(N)=O)ncn3c2=O)on1 | – | > 50 µM | > 50 µM | > 50 µM | > 50 µM
– | COc1ccccc1Cn1nnc2c(C(N)=O)ncn2c1=O | – | > 50 µM | > 50 µM | > 50 µM | > 50 µM
– | C[C@@H](c1ccccc1)n1nnc2c(C(N)=O)ncn2c1=O | – | 45.3 µM | > 50 µM | > 50 µM | 34.7 µM
– | NC(=O)c1nc[nH]c1N/N=N/Cc1cccs1 | – | > 50 µM | > 50 µM | > 50 µM | > 50 µM
– | C[Si](C)(C)CCOCn1nnc2c(C(N)=O)ncn2c1=O | – | 27.5 µM | 25.3 µM | 24.2 µM | 29.9 µM
– | NC(=O)c1ncn2c(=O)n(CCc3ccccc3)nnc12 | – | > 50 µM | > 50 µM | > 50 µM | > 50 µM
– | COc1cccc(Cn2nnc3c(C(N)=O)ncn3c2=O)c1 | – | > 50 µM | > 50 µM | > 50 µM | > 50 µM
– | CC[C@@H](c1ccccc1)n1nnc2c(C(N)=O)ncn2c1=O | – | > 50 µM | > 50 µM | > 50 µM | > 50 µM
– | COc1ccc(Cn2nnc3c(C(N)=O)ncn3c2=O)cc1 | – | > 50 µM | > 50 µM | > 50 µM | > 50 µM
– | NC(=O)c1nc[nH]c1N/N=N/Cc1ccsc1 | – | > 50 µM | > 50 µM | > 50 µM | > 50 µM
– | NC(=O)c1ncn2c(=O)n(Cc3cccs3)nnc12 | – | > 50 µM | > 50 µM | > 50 µM | > 50 µM
– | CC(c1ccc(Br)cc1)n1nnc2c(C(N)=O)ncn2c1=O (racemic) | – | > 50 µM | > 50 µM | > 50 µM | > 50 µM
– | CO [METHYL ALCOHOL] | Metabolite_Detected | – | – | – | –
– | COP(=O)(O)O [PHOSPHORIC ACID MONOMETHYL ESTER] | Metabolite_Detected | – | – | – | –
– | Cn1nnc2c(C(N)=O)ncn2c1=O [TEMOZOLOMIDE] | – | 470 µM | 68 µM | 369 µM | 35.7 µM

SMILES | Drug metabolism [1] | Drug metabolism [2] | GI50 (SNB-19 [3]) | GI50 (U373 MG [4]) | GI50 (U373 MG [5]) | GI50 (SNB-19 [6])
C=O.O | Metabolite_Detected | – | – | – | – | –
